Results published in publication PMC6934184, “Selective DNA-PKcs inhibition extends the therapeutic index of localized radiotherapy and chemotherapy” (The Journal of Clinical Investigation, 2019).

Molecular target: T1, CAMK1D (CaMKI delta) (Homo sapiens, UniProt Q8IU85)
T1 construct: purchased Thermo Fisher Scientific (Life Technologies) SelectScreen
Test: SelectScreen Z'LYTE
Type: biochemical
Method in brief: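 Percent values come from Thermo SelectScreen profiling of NU5455, combining activity and binding assays. CSF1R was run in Z'LYTE format at Km app ATP, and CAMK1 in Adapta format with ATP listed at 10.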

T1 sequence (Q8IU85 whole entry): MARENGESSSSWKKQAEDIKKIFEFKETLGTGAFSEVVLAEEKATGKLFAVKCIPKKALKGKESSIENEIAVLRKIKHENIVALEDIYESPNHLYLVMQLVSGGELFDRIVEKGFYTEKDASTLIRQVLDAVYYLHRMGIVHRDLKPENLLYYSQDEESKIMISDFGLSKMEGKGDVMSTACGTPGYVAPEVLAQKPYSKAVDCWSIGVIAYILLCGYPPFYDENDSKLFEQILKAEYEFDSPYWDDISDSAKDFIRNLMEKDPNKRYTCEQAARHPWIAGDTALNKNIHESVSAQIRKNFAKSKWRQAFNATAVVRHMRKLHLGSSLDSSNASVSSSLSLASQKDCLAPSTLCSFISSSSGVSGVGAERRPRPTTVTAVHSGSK

For CN(C(=O)CN1CCOCC1)c1ccc2sc3c(-c4cccc5c(=O)cc(N6CC7CCC(C6)O7)oc45)cccc3c2c1 [NU5455], the inhibition at 1 µM was 4.1%.
